Key:
Conditions in all cases: 10 μM free compound
GSK3B = GSK3B (Homo sapiens, UniProt P49841); assay: Kinobeads competition binding, HL60 cell lysate; design: endogenous in cells; host or cells: HL60
Method: (§1) To one aliquot of cell lysate 10 μM of the free compound (FIG. 3, CZC31326) was added and allowed to bind to proteins in the lysate. Then the affinity matrix with the immobilized compound (Example 1) was added to capture proteins that were not interacting with the previously added free compound. Beads were separated from the lysate and bead bound proteins were eluted in SDS sample buffer and subsequently separated by SDS-Polyacrylamide gel electrophoresis (FIG. 4). Suitable gel bands were cut out and subjected to in-gel proteolytic digestion with trypsin. The second lysate aliquot was processed identically, however no free compound was added (DMSO solvent control). Peptides originating from samples 1 and 2 were labeled with iTRAQ reagents (iTRAQ 114 and iTRAQ 117) and the combined samples were analyzed with a nano-flow liquid chromatography system coupled online to a tandem mass spectrometer (LC-MS/MS) experiment followed by iTRAQ reporter ion quantification in the MS/MS spectra (Ross et al., 2004. Mol. Cell. Proteomics 3(12):1154-1169). Further experimental protocols can be found in WO2006/134056 and a previous publication (Bantscheff et al., 2007. Nature Biotechnology 25, 1035-1044). Sepharose-beads with the immobilized compound (100 μl beads per pull-down experiment) were equilibrated in lysis buffer and incubated with a cell lysate sample containing 50 mg of protein on an end-over-end shaker (Roto Shake Genie, Scientific Industries Inc.) for 2 hours at 4° C. Beads were collected, transferred to Mobicol-columns (MoBiTech 10055) and washed with 10 ml lysis buffer containing 0.4% NP40 detergent, followed by 5 ml lysis buffer containing 0.2% detergent. To elute bound proteins, 60 μl 2×SDS sample buffer was added to the column. The column was incubated for 30 minutes at 50° C. and the eluate was transferred to a siliconized microfuge tube by centrifugation. Proteins were then alkylated with 108 mM iodoacetamid. Proteins were then separated by SDS-Polyacrylamide electrophoresis (SDS-PAGE). The peptide extracts of samples treated with 10 μM of free compound (CZC31326) and the solvent control (0.5% DMSO) were treated with different variants of the isobaric tagging reagent (iTRAQ Reagents Multiplex Kit, part number 4352135, Applied Biosystems, Foster City, Calif., USA). The iTRAQ reagents are a set of multiplexed, amine-specific, stable isotope reagents that can label peptides on amino groups in up to four different biological samples enabling simultaneous identification and quantitation of peptides. The iTRAQ reagents were used according to instructions provided by the manufacturer. The samples were resuspended in 10 μl 50 mM TEAB solution, pH 8.5 and 10 μl ethanol were added. The iTRAQ reagent was dissolved in 120 μl ethanol and 10 μl of reagent solution were added to the sample. The labeling reaction was performed at room temperature for one hour on a horizontal shaker and stopped by adding 5 μl of 100 mM TEAB and 100 mM glycine in water. The two labeled sampled were then combined, dried in a vacuum centrifuge and resuspended in 10 μl of 0.1% formic acid in water. Relative protein quantitation was performed using peak areas of iTRAQ reporter ion signals essentially as described in an earlier publication (Bantscheff et al., 2007. Nature Biotechnology 25, 1035-1044).

IRAK4 = biological target: T1, IRAK4 (Homo sapiens, UniProt Q9NWZ3); assay: Kinobeads competition binding, HL60 cell lysate; design: endogenous in cells; host or cells: HL60
T1 sequence (Q9NWZ3 1-460): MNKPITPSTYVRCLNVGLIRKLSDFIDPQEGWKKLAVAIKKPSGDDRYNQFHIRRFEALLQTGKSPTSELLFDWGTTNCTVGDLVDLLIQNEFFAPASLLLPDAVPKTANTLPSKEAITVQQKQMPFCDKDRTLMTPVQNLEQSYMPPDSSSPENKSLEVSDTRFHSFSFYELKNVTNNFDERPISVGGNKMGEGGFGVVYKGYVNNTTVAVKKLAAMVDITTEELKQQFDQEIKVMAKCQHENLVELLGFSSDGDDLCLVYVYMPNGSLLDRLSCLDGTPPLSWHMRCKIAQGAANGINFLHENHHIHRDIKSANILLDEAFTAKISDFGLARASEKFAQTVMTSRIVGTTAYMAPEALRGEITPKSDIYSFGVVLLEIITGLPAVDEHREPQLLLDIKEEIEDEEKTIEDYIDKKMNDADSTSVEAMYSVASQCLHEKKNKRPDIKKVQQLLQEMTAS
Method: as §1

MSK2 = MSK2 (Homo sapiens, UniProt O75676); assay: Kinobeads competition binding, HL60 cell lysate; design: endogenous in cells; host or cells: HL60
Method: as §1

FAK = biological target: T2, FAK (Homo sapiens, UniProt Q05397); assay: Kinobeads competition binding, HeLa Placenta lysate mix
T2 construct: capturing and identification of kinases from mixed HeLa placenta lysates; endogenous in cells; host or cells: mixed lysate of HeLa cells and placenta tissue
Method: (§2) To one aliquot of cell lysate 10 μM of the free compound (FIG. 3, CZC31326) was added and allowed to bind to proteins in the lysate. Then the affinity matrix with the immobilized compound was added to capture proteins that were not interacting with the previously added free compound. Beads were separated from the lysate and bead bound proteins were eluted in SDS sample buffer and subsequently separated by SDS-Polyacrylamide gel electrophoresis (FIG. 10). Suitable gel bands were cut out and subjected to in-gel proteolytic digestion with trypsin. The second lysate aliquot was processed identically, however no free compound was added (DMSO solvent control). Peptides originating from samples 1 and 2 were labeled with iTRAQ reagents (iTRAQ 114 and iTRAQ 117) and the combined samples were analyzed with a nano-flow liquid chromatography system coupled online to a tandem mass spectrometer (LC-MS/MS) experiment followed by iTRAQ reporter ion quantification in the MS/MS spectra as described in Example 2.

PKG1 = biological target: T3, PKG1 (Homo sapiens, UniProt Q13976); assay: as above
T3 construct: capturing and identification of kinases from mixed HeLa placenta lysates; endogenous in cells; host or cells: mixed lysate of HeLa cells and placenta tissue
Method: as §2

MRCKb = biological target: T4, MRCKb (Homo sapiens, UniProt Q9Y5S2); assay: as above
T4 construct: capturing and identification of kinases from mixed HeLa placenta lysates; endogenous in cells; host or cells: mixed lysate of HeLa cells and placenta tissue
Method: as §2

TNK1 = biological target: T5, TNK1 (Homo sapiens, UniProt Q13470); assay: as above
T5 construct: capturing and identification of kinases from mixed HeLa placenta lysates; endogenous in cells; host or cells: mixed lysate of HeLa cells and placenta tissue
Method: as §2

MRCKa = biological target: T6, MRCKa (Homo sapiens, UniProt Q5VT25); assay: as above
T6 construct: capturing and identification of kinases from mixed HeLa placenta lysates; endogenous in cells; host or cells: mixed lysate of HeLa cells and placenta tissue
Method: as §2

MAP3K6 = biological target: T7, MAP3K6 (Homo sapiens, UniProt O95382); assay: as above
T7 construct: capturing and identification of kinases from mixed HeLa placenta lysates; endogenous in cells; host or cells: mixed lysate of HeLa cells and placenta tissue
Method: as §2

KDR = biological target: T8, KDR (Homo sapiens, UniProt P35968); assay: as above
T8 construct: capturing and identification of kinases from mixed HeLa placenta lysates; endogenous in cells; host or cells: mixed lysate of HeLa cells and placenta tissue
Method: as §2

CaMKK1 = biological target: T9, CaMKK1 (Homo sapiens, UniProt Q8N5S9); assay: as above
T9 construct: capturing and identification of kinases from mixed HeLa placenta lysates; endogenous in cells; host or cells: mixed lysate of HeLa cells and placenta tissue
Method: as §2

T9 sequence (Q8N5S9 whole entry): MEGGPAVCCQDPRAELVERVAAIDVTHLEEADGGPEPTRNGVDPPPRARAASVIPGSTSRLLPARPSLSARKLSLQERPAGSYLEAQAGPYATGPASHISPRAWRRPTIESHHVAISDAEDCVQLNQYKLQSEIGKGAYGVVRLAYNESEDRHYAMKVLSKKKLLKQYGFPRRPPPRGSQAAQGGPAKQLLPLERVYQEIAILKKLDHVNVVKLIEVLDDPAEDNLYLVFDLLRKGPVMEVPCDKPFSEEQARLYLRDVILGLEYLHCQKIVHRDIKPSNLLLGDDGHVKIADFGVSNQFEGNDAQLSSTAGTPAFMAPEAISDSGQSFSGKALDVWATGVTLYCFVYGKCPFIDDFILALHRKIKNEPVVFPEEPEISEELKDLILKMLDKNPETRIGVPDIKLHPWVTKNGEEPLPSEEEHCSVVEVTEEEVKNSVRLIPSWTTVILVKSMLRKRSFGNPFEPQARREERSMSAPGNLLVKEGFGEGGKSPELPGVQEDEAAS
T4 sequence (Q9Y5S2 whole entry): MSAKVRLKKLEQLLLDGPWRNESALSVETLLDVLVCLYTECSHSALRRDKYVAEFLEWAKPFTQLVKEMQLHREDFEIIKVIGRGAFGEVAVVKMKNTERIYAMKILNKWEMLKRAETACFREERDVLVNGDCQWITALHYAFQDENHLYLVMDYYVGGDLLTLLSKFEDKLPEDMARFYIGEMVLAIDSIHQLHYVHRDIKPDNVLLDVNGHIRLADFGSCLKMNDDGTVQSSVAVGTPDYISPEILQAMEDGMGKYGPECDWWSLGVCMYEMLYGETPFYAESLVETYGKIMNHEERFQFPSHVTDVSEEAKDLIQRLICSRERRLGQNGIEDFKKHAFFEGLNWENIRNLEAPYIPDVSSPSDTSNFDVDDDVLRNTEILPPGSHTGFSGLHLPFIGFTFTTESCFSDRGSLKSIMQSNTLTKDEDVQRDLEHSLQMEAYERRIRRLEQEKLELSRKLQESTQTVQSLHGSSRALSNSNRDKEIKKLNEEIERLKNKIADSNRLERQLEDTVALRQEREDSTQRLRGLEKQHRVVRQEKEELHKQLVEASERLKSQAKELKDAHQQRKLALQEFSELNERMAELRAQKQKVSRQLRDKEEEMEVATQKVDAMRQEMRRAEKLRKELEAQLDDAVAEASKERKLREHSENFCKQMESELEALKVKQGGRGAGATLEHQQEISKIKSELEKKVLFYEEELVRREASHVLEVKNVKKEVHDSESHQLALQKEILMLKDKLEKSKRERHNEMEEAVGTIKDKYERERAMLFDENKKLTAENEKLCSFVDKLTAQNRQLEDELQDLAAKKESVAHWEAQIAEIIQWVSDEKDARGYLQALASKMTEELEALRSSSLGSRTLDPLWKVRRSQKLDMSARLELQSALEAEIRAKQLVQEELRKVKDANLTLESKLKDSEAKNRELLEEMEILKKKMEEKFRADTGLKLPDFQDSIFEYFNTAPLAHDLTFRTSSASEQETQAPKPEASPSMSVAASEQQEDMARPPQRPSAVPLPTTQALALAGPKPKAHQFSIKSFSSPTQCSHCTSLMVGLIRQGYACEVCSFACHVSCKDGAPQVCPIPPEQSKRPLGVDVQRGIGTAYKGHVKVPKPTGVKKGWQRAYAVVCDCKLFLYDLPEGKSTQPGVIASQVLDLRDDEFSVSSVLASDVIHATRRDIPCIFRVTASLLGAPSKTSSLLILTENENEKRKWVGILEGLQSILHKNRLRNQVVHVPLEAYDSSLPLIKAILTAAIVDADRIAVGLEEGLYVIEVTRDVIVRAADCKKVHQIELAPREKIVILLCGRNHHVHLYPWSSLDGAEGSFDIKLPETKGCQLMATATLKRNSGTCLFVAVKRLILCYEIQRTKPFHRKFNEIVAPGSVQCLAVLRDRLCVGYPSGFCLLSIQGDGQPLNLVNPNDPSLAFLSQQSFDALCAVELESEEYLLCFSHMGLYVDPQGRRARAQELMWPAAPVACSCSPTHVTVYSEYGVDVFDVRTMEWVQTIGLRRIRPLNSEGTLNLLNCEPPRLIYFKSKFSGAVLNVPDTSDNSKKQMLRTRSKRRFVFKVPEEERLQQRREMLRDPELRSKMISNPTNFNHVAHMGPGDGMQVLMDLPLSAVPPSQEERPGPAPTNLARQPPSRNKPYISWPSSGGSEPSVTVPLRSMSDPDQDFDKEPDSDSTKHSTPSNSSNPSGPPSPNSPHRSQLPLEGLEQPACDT
T2 sequence (Q05397 whole entry): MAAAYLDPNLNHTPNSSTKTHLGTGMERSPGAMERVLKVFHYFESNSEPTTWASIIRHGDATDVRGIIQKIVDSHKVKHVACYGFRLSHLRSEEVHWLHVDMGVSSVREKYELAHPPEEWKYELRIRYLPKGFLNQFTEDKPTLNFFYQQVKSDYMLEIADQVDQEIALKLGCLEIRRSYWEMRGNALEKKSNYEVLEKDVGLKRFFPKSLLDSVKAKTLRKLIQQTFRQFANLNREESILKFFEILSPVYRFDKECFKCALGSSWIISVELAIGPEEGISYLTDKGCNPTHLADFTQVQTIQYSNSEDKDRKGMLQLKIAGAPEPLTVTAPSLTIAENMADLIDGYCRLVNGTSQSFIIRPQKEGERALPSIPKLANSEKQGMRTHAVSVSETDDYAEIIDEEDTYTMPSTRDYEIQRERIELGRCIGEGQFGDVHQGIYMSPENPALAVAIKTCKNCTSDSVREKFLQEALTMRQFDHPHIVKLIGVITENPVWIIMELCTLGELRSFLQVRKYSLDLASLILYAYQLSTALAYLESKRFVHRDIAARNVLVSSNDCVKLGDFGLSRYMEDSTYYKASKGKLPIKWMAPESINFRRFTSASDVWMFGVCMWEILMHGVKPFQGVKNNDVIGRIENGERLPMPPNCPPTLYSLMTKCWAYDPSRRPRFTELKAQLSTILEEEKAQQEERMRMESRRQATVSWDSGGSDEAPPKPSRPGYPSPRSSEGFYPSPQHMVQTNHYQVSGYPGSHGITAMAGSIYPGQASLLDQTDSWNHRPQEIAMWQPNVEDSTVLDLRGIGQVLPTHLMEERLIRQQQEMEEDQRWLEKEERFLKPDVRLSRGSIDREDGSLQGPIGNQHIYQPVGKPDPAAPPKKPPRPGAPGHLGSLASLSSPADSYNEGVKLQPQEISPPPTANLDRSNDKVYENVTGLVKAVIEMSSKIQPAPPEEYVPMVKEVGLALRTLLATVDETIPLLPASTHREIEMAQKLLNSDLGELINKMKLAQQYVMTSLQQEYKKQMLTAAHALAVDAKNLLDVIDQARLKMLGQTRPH
T3 sequence (Q13976 whole entry): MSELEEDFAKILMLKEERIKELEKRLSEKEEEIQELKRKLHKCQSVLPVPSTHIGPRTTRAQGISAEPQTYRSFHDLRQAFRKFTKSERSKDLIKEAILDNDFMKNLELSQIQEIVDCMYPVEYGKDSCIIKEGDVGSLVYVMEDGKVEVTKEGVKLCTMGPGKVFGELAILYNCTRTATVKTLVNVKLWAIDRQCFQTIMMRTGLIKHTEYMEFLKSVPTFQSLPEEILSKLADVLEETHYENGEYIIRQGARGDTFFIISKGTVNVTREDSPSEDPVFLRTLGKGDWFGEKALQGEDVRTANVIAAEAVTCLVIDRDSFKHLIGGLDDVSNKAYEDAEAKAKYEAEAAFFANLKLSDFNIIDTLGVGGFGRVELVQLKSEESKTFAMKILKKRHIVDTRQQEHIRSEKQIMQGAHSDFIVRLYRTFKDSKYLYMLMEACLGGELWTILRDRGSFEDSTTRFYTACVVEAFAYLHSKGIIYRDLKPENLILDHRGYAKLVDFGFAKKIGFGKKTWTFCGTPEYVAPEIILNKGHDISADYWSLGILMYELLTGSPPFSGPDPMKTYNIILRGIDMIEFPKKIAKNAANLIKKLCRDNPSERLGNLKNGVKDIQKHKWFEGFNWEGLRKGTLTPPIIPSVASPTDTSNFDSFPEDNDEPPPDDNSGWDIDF
T5 sequence (Q13470 whole entry): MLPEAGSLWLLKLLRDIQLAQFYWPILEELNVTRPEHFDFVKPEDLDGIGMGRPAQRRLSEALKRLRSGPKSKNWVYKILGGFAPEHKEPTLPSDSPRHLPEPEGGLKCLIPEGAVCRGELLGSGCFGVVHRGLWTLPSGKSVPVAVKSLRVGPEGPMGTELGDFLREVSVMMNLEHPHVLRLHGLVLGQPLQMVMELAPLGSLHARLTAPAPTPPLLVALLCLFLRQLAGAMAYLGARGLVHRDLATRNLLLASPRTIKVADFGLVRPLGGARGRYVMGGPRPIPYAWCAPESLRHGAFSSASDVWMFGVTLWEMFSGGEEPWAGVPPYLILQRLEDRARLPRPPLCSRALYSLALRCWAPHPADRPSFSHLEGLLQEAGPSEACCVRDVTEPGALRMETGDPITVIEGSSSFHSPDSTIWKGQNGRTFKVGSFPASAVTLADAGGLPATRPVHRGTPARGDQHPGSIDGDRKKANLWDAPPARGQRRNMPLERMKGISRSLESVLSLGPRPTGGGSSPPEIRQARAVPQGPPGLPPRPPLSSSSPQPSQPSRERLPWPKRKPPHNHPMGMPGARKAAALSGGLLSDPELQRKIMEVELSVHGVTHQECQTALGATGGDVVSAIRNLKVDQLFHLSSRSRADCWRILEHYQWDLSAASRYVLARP
Chain of GSK3B (P49841 whole entry): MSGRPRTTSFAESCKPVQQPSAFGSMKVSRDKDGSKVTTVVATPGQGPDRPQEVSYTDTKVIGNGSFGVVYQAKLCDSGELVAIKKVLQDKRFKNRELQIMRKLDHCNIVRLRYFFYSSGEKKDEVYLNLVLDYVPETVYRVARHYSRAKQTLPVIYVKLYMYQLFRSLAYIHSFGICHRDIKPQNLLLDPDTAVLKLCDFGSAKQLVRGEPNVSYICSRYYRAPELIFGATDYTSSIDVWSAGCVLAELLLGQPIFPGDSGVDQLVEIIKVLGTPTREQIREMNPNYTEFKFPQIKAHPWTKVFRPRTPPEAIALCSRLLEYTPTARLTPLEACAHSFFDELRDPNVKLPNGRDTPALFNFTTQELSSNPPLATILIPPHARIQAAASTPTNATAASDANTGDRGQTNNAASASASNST

inhibition at 10 µM (GSK3B): 96.1%
Competition % (IRAK4): 97.5%
inhibition at 10 µM (MSK2): 96.8%
inhibition at 10 µM (FAK): 93.8%
inhibition at 10 µM (PKG1): 90.4%
inhibition at 10 µM (MRCKb): 94%
inhibition at 10 µM (TNK1): 94.3%
inhibition at 10 µM (MRCKa): 92.1%
inhibition at 10 µM (MAP3K6): 84.3%
inhibition at 10 µM (KDR): 90%
inhibition at 10 µM (CaMKK1): 94.2%
Compound: CS(=O)(=O)Nc1ccccc1Nc1nc(Nc2cccc(OCCN)c2)ncc1Cl [CZC31326, N-(2-(2-(3-(2-aminoethoxy)phenylamino)-5-chloropyrimidin-4-ylamino)phenyl)methanesulfonamide]

Source: US20120270237A9, “METHODS FOR THE IDENTIFICATION OF KINASE INTERACTING MOLECULES AND FOR THE PURIFICATION OF KINASE PROTEINS” (Cellzone AG, priority 2009, published 2012)
